This note sets out measurements from PubChem BioAssay AID1508591.

By half-life is commonly meant the time in which the quantity being followed falls by half.

The conditions of this data set: rat; liver microsomes; pH 7.4; 15.0 min; 1.0 µM. For orientation: Liver microsomes are a subcellular fraction often used to study metabolism.
With `CN1CCN(c2cc(-c3nc(Nc4ccc(F)c(F)c4)c4ccccc4n3)ccn2)CC1`, the half-life was 5.3 min.

`Fc1ccc(Nc2nc(-c3ccccc3)nc3ccccc23)cc1F` showed a half-life of more than 30 min.

Take `Cc1ccc(S(=O)(=O)Nc2ccccc2CNc2nc(-c3ccccc3)cs2)cc1`: the half-life worked out at 1.6 min.

In turn, `COc1ccc(S(=O)(=O)Nc2cnccc2C(=O)Nc2nc(-c3ccccc3)cs2)cc1` gave a half-life of 1.6 min.

The molecule `Cc1ccc(S(=O)(=O)Nc2cnccc2C(=O)Nc2nc(C(=O)O)cs2)cc1` displayed a half-life of more than 30 min.

For the molecule `Clc1ccc(-c2noc3ncnc(N4CCCCC4)c23)cc1`, the half-life is 5.8 min.

On to `COc1ccccc1-c1cc2c(ccn2C)c(C(=O)NCC2CCN(C)C(=O)C2)n1` (stereo not given), for which the half-life was more than 30 min.

For the molecule `CCN(CC)C(=O)N1c2ccccc2C=Cc2ccccc21`, the half-life is 1.07 min.

Take `CCN1C(=O)c2ccccc2[S@](=O)c2ccc(C(=O)N[C@H](C)c3ccc4ccccc4c3)cc21`: the half-life stood at 5.2 min.

As for `O=c1ncn2nc(Sc3ccc(F)cc3F)ccc2c1-c1c(Cl)cccc1Cl`, the half-life is more than 30 min.

The molecule `CN(C)CCN1C(=O)c2cccc3cc(N)cc(c23)C1=O` yielded a half-life of more than 30 min.

`CN1CCN(C(c2ccccc2)c2ccc(Cl)cc2)CC1` (stereo not given) yielded a half-life of 3 min.

Turning to `c1ccc2c(Nc3ccon3)nc(-c3ccncc3)nc2c1`, the half-life turned out to be 6.2 min.

The molecule `CC(C)(C)CN1CCNc2cc(Nc3ccccc3)ncc2C1` came in with a half-life of 1.64 min. Against the preceding molecule, the half-life is about 3.8-fold lower.

For `COc1cncc(Nc2ncc(-c3cccc(N(C)C)c3)c3c2OCC3)c1`, the half-life worked out at 11.7 min.

On to `CCOC(=O)c1ccc(N2C(=O)c3n[nH]c(-c4ccco4)c3C2c2ccc(C)cc2)cc1` (stereo not given), for which the half-life turned out to be 8.24 min.

The molecule `O=S(=O)(c1ccccc1)c1nc(-c2ccc(F)cc2)oc1N1CCCCCC1` came in with a half-life of 1.95 min.

The molecule `OCCN1CCN(CCCN2c3ccccc3Sc3ccc(Cl)cc32)CC1` registered a half-life of 4.34 min.

`CC(C)=CCNc1ncnc2nc[nH]c12` came in with a half-life of more than 30 min.

Regarding `O=c1[nH]c(N2CCOCC2)nc2c1CCN(Cc1cc(Cl)ccc1F)CC2`, the half-life was more than 30 min.

`CC(C)(C)OC(=O)N[C@@H](Cc1ccc(O[S+](=O)([O-])c2cccc3cnccc23)cc1)C(=O)Nc1ccc(-c2ccccc2)cc1`: the half-life stood at 2.55 min.

`O=c1cc(-c2ccccc2)oc2cc(O)cc(O)c12` yielded a half-life of 1.92 min.

In turn, `Fc1ccc(-c2csc3ncnc(Sc4nnnn4C4CC4)c23)cc1` returned a half-life of 4.2 min.

`CC(C)Oc1ccccc1C(=O)Nc1nc(-c2ccccc2)cs1` yielded a half-life of 9 min.

`CN1Cc2c(cc(N3CCOCC3)nc2-c2ccccc2OC(F)(F)F)C1=O` displayed a half-life of more than 30 min.

`CCc1oc2ccccc2c1C(=O)c1cc(Br)c(O)c(Br)c1` registered a half-life of 9.75 min.

In the case of `CC(=O)c1ccc(N2CCN(S(=O)(=O)c3cc4c(cc3Cl)NC(=O)C4)CC2)cc1`, the half-life came out at 28 min.

`CN1CCN(Cc2ccc(NC(=O)Cc3ccc(Oc4cc(NC(=O)C5CC5)ncn4)cc3)cc2C(F)(F)F)CC1` showed a half-life of more than 30 min.

In turn, `COc1ccc(OC)c(-c2nnc3ccc(-c4ccc(OC)c(O[C@@H]5CCOC5)c4)nn23)c1` gave a half-life of 5.5 min.

Take `COc1ccc(-n2nc(C)c([C@@H]3C=C[C@@H](NCc4ccc(F)cc4)C3)c2C)cc1`: the half-life was 6.66 min.

In turn, `CC1=C(C(=O)Nc2nccs2)C(c2ccccc2Br)N=C(Nc2nc3ccccc3o2)N1` (stereo not given) displayed a half-life of 27 min.

For `COc1cccc(CNc2ccc(S(=O)(=O)Nc3ccc(-c4ccccc4)cc3)cc2)c1O`, the half-life turned out to be 2.7 min.

In the case of `CN1C(=O)c2ccccc2[S@](=O)c2ccc(C(=O)NCc3cccnc3)cc21`, the half-life was more than 30 min.

Consider `Cn1cncc1[C@@](N)(c1ccc(Cl)cc1)c1ccc2c(c1)c(-c1cccc(Cl)c1)cc(=O)n2C`, for which the half-life worked out at 9.54 min.

`COc1ccc(C)cc1NC(=O)c1cnc(-c2ccc(F)cc2)nc1-c1ccncc1` had a half-life of 5.86 min.

Turning to `COc1cc2nccc(Oc3ccc(NC(=O)C4(C(=O)Nc5ccc(F)cc5)CC4)cc3)c2cc1OC`, the half-life was more than 30 min.

`NC(=O)C1CCN(c2nc(-c3ccccc3Cl)cs2)CC1` had a half-life of 4.02 min.

Molecule `Cc1cc(S(=O)(=O)Nc2cnccc2C(=O)Nc2nc(-c3ccccc3)cs2)c(C)o1` yielded a half-life of 8.55 min.

`COc1ccc(NC(=O)c2cc(-c3ccc[nH]3)n[nH]2)cc1OC` had a half-life of more than 30 min.

The molecule `Cc1cccc(S(=O)(=O)c2cn(Cc3ccccc3)c3cc(N4CCCCC4C)c(F)cc3c2=O)c1` (stereo not given) showed a half-life of 2 min.

Consider `Cc1ccc(NS(=O)(=O)c2cccc(C(=O)O)c2)cc1S(=O)(=O)N1CCOCC1`, for which the half-life is more than 30 min.

`O=C1NCc2cc(-c3cc4c(ccn4Cc4ccncc4)c(N4CCOCC4)n3)ccc21` had a half-life of 13.4 min.

Regarding `Cc1c(C)n(Cc2ccc(-c3ccccc3C(=O)O)cc2)c2ccc(C(=O)N[C@@H](C)c3ccc([N+](=O)[O-])cc3)cc12`, the half-life is more than 30 min.

`Cc1ccnc(NC(=S)N2CCN(c3ccc(C(F)(F)F)cc3)CC2)c1` registered a half-life of more than 30 min.

Take `Cc1ccc2c(c1)c(=O)c1ccccc1n2CCCC(=O)Nc1cc(Cl)ccc1C`: the half-life turned out to be 3.79 min.

With `COc1oc(-c2cccc3ccccc23)nc1C(=O)O`, the half-life is more than 30 min.

In turn, `CCN1C(=O)c2ccccc2[S@](=O)c2ccc(C(=O)NCc3ccc(C#N)cc3)cc21` displayed a half-life of 21 min.

Regarding `COc1ccc(-c2nc3sc(CCNC(=O)C(C)(C)C)c(C)n3n2)cc1`, the half-life came to 9.33 min. This half-life is about 2.3-fold lower than that of the molecule before.

`Cc1ccc(S(=O)(=O)Nc2cnccc2C(=O)Nc2cccc3ccccc23)cc1`: the half-life worked out at 5.6 min.

With `Cc1sc(NC(=O)Cc2ccc3c(c2)OCO3)nc1-c1ccc2c(c1)CCN2C(=O)c1ccccc1C(F)(F)F`, the half-life is more than 30 min.

As for `CC(C)Oc1ccc(-c2csc(N3CCC(C(N)=O)CC3)n2)cc1`, the half-life is more than 30 min.

`CNc1cc(-c2nc(Nc3ccc(F)c(F)c3)c3ccccc3n2)ccn1` came in with a half-life of 8.2 min.

Molecule `CCCNC(=O)Nc1ccc(Oc2ncnc3cc(OC)c(OC)cc23)cc1Cl` returned a half-life of more than 30 min.

Molecule `O=C(Cc1cccs1)NCc1nnc2ccc(-c3ccccc3)nn12` gave a half-life of 17.8 min.

`Cn1ncnc1[C@H]1c2n[nH]c(=O)c3cc(F)cc(c23)N[C@@H]1c1ccc(F)cc1` had a half-life of more than 30 min.

`CC1=C(C(=O)Nc2nc3ccccc3s2)C(c2[nH]ncc2Cl)N=C(Nc2nc3ccccc3o2)N1` (stereo not given): the half-life is 10.4 min.

`CCOc1ccc(CCNC(=O)c2ccc(C3(C(F)(F)F)N=N3)cc2)cc1OCC` returned a half-life of 11 min. This half-life and that of the molecule before are within 1.5-fold of each other.

Regarding `COc1ccccc1CNC(=O)CCCn1nc(C)c2c(C)n(-c3ccc(C)cc3)nc2c1=O`, the half-life was found to be 3.45 min.

Regarding `Fc1ccc(Nc2nc(C3=CCNCC3)nc3ccccc23)cc1F`, the half-life was determined as 6.1 min.

`COC(=O)[C@H](Cc1ccc(O[S+](=O)([O-])c2cccc3cnccc23)cc1)N[S+](=O)([O-])c1ccc2cnccc2c1` had a half-life of 1 min.

`CN1C(=O)c2ccccc2[S@](=O)c2ccc(C(=O)NCc3ccc(Br)cc3)cc21` displayed a half-life of 13 min. Against the preceding molecule, the half-life is about 13-fold higher.

`CC(C)(C)c1ccc(-c2csc(N3CCC(C(N)=O)CC3)n2)cc1`: the half-life was 13.9 min. This half-life and that of the molecule before are within 1.5-fold of each other.

On to `Nc1nc2c(s1)C(c1ccccc1)CC(=O)N2` (stereo not given), for which the half-life is more than 30 min.

`CN(C)C(=O)c1nc(-c2ccc(S(C)(=O)=O)cc2)c2cnccn12`: the half-life was more than 30 min.

In the case of `COc1ccccc1N1CCN(CCN(C(=O)c2ccc(I)cc2)c2ccccn2)CC1`, the half-life stood at 1.49 min.

The molecule `Cc1cccc(-c2noc([C@@H]3Cc4nc[nH]c4CN3)n2)c1` displayed a half-life of more than 30 min.

Consider `CCCCN(CC)CCNC(=O)c1cc2c(-c3ccc(Cl)cc3)nn(C)c2s1`, for which the half-life was determined as 3.76 min.

Molecule `CC(=O)c1c(C)[nH]c(C(=O)Nc2ccc(Cl)cc2)c1C` returned a half-life of more than 30 min.

Take `Cc1ccc(S(=O)(=O)c2cnc(SC(C)C(=O)Nc3ccccc3)[nH]c2=O)cc1` (stereo not given): the half-life was determined as 10.7 min.

In the case of `CC[C@H](NC(=O)[C@H](C)NC)C(=O)N1C[C@@H](O)C[C@H]1Cc1c(-c2[nH]c3cc(F)ccc3c2C[C@H]2C[C@H](O)CN2C(=O)[C@H](CC)NC(=O)[C@H](C)NC)[nH]c2cc(F)ccc12`, the half-life was more than 30 min.

With `Cc1cc(C)nc(NC(=S)N2CCN(c3ccc(Cl)cc3F)CC2)c1`, the half-life was more than 30 min.

For the molecule `COc1ccccc1-c1[nH]nc2ncc(-c3ccc(C)cc3)nc12`, the half-life is 3 min.

Regarding `O=c1c(-c2cccs2)ccc2n1C[C@H]1C[C@@H]2CN(C2CCOCC2)C1`, the half-life worked out at 14.6 min. Compared with the last molecule, the half-life is about 4.9-fold higher.

Take `NC(=O)C1CCN(c2nc(-c3ccc(OCc4ccccc4)cc3)cs2)CC1`: the half-life was 18.3 min.

In turn, `COc1cccc(O)c1CNc1ccc(S(=O)(=O)Nc2nccs2)cc1` displayed a half-life of 8.9 min. Compared with the last molecule, the half-life is about 2.1-fold lower.

Regarding `COc1ccc(C(=O)Nc2nc(-c3ccccc3)cs2)c(OC)c1`, the half-life was determined as 18 min.

Take `Cc1cc(Cl)ccc1COc1ccnn1-c1cc(C(=O)O)ccn1`: the half-life was more than 30 min.

Turning to `c1ccc2c(Nc3ccn[nH]3)nc(-c3ccncc3)nc2c1`, the half-life was found to be 13 min.

Consider `CN1CCC(N(Cc2cccs2)c2ccccc2)CC1`, for which the half-life worked out at 1.37 min.

In turn, `Cc1cc2c(-c3cccc(O)c3)nc(-c3c(C)noc3C)cc2[nH]1` registered a half-life of 24.2 min.

`Cc1ccc(S(=O)(=O)Nc2ccccc2C(=O)Nc2nc(-c3ccccc3)c(C)s2)cc1` had a half-life of 6.3 min.

Consider `COC[C@@H]1CN(C(=O)c2n[nH]c3ccccc23)C[C@H]1c1nc(C)no1`, for which the half-life is more than 30 min.

For `NC(=O)C1CCN(c2ncc(-c3cccc(N4CCCC4)c3)s2)CC1`, the half-life was found to be 15 min.

`COc1ccc(C(=O)NC2CCCc3c2[nH]c2c(Cl)cccc32)cc1OC` (stereo not given) came in with a half-life of 22.4 min.

Regarding `Cc1ccc(-c2cc(C(=O)Nc3cccc(S(N)(=O)=O)c3)c3ccccc3n2)cc1C`, the half-life came to 12 min.

As for `N#Cc1cccc(S(=O)(=O)Nc2cnccc2C(=O)Nc2nc(-c3ccccc3)cs2)c1`, the half-life was determined as 14 min.

`COc1cccc(-n2nc(C(=O)O)cc2-c2ccc(C3CCCCC3)c(Cl)c2)c1` displayed a half-life of more than 30 min.

For the molecule `COc1ccc(S(=O)(=O)N2CCN(C(=O)C3COc4ccccc4O3)CC2)cc1` (stereo not given), the half-life came to 7.6 min.

Molecule `CCOC(=O)c1ccc(NC(=O)CSc2nc3c(cc2C#N)N2CCC3CC2)cc1` came in with a half-life of 4.26 min.

In turn, `Cc1cccc(-n2cnc3cc(C(=O)N4CCCC(C(F)(F)F)C4)ccc32)c1` (stereo not given) displayed a half-life of 1.3 min.
